System: 3D patient-derived meningioma models (pediatric patient's meningioma tissue)
Assay: Drug treatment of 3D patient-derived meningioma models, live cell staining (calcein AM) and confocal imaging
Type: cell-based, human
Settings: one month-old 3D pediatric meningioma models; drug 0.05 to 0.8 mM for 48 hours; calcein AM live stain; compared to etoposide, carmustine, irinotecan hydrochloride, temozolomide
Experimental: FIGS. 7A-7B show drug treatment of 3D patient-derived meningioma models. A pediatric patient's meningioma tissue was used to generate replicates of 3D tumor models. One month-old models were treated with chemotherapeutic drugs, etoposide (VP16), carmustine (BCNU), lomustine (CCNU), irinotecan hydrochloride (CPT11) and temozolomide (TMZ) of 0.05 to 0.8 mM for 48 hours. The models were stained with calcein AM (2 uM) for live cells and confocal imaged ([…] section, 35 sections). (FIG. 7A) Maximum projection of 3D image stacks of drug-treated models. Number indicates drug concentration in mM. Ctrl, control. Scale bar, […]. (FIG. 7B) Quantification of live cell counts in relation to drug doses.
FIGS. 7A-7B show an example of drug study using patient-derived tumor models. This example used a pediatric meningioma model to test commonly used chemotherapeutic drugs (etoposide, carmustine, lomustine, irinotecan hydrochloride and temozolomide). […] Additional studies will compare the in vitro findings with the patient's clinical responses to further determine the most optimal drug regimen.
Live/Dead Assay was used to image live cells in cultures, according to the manufacturer's protocol (ThermoFisher Scientific). […] The stained cultures were imaged with a fluorescence microscope at Ex/Em of 494/517 nm and 528/617 nm for Live and Dead stains, respectively. […]

In the case of O=NN(CCCl)C(=O)NC1CCCCC1 [lomustine], the “tumor cell-killing effects (live cell counts in relation to drug doses)” value is reported as “strongest tumor cell-killing effects”.
